Measurements: article PMC2810339, “Allosteric Regulation of HIV-1 Reverse Transcriptase by ATP for Nucleotide Selection” (PLoS ONE, 2010)

Experiments:
Assay type in all cases: biochemical, HIV-1
[1] = system: multi-NRTI-resistant RT (ERT-mt6), purified p51/p66 heterodimer; experiment: RNA-dependent DNA polymerase activity, dTTP incorporation into poly (rA)·p(dT)12-18, steady-state kinetics; details: for fold increase in IC50 of AZTTP compared to AZTTP without the compound: in the presence of 5 mM of the indicated compound; for fold increase in Ki^NRTI value compared to without ATP: at 3 mM of ATP
Procedure: (§1) RNA-dependent DNA polymerase activity was measured using [α-^32P]dTTP and poly(rA)/poly(dT)12-18 as described previously. […] These experiments were performed in duplicate and repeated two to six times.
(§2) The averages of the experimental data were fit by a nonlinear regression method using the program Igor Pro (WaveMetrics, USA). The kinetics parameters were determined by the Michaelis-Menten equation: [drawing 1] (1) where [S] is the substrate concentration; Km^app is the apparent Michaelis-Menten constant; and Vmax^app is the apparent maximal rate attained when the enzyme active sites are saturated by substrate.
(§3) Using this model, the enzyme kinetic parameters were calculated using Equations 2–5.
(§4) Vmax^app and Km^app are defined as [drawing 2] (2) and [drawing 3] (3) respectively, where Km is the Michaelis-Menten constant; [E] is the enzyme concentration; [I] is the inhibitor concentration; Ki and Ki′ are the inhibition constants for the enzyme and the complex of the enzyme with substrate; and kcat^app is the apparent turnover number: [drawing 4] (4) where kcat is the turnover number.
(§5) The kcat^app and Km^app that can be derived from the model (Figure 2C) are [drawing 5] (5) and [drawing 6] (6) where Ki^ATP is the dissociation constant of ATP; Ki^AZTTP is the dissociation constant of AZTTP; [I^ATP] is the ATP concentration; and [I^AZTTP] is the AZTTP concentration.

[2] = system: NRTI-sensitive RT (93JP-NH1), purified p51/p66 heterodimer; experiment: as above; details: for fold increase in Ki^NRTI value compared to without ATP: at 3 mM of ATP
Procedure: as §1, §2, §3, §4, §5

[3] = system: D113A/N mutants of ERT-mt6 RT; experiment: RNA-dependent DNA polymerase activity of site-directed RT mutants from ERT-mt6; details: D113A/N versus ERT-mt6 RT; 5 mM ATP (Figure S4C)
Procedure: The purified RTs were dissolved in the RT stock buffer (50 mM Tris-HCl pH 7.5, 75 mM KCl, 5 mM MgCl2, 2 mM DTT, 0.05% NP40, and 50% glycerol)[32], [33] and kept at −30°C until use. RNA-dependent DNA polymerase activity was measured using [α-^32P]dTTP and poly(rA)/poly(dT)12-18 as described previously. For the RT reaction in the presence of ATP, RT activities were measured in 100 µl of RT reaction cocktail consisting of 50 mM Tris-HCl pH 7.5, 75 mM KCl, 5 mM MgCl2, 2 mM DTT, 0.05% NP40, and 50% glycerol containing RT (1–10 nM), dTTP (0.2–18 µM), and ATP (0–4 mM). For the RT reaction in the presence of ATP and NRTI, RT activities were measured in 100 µl of the RT reaction cocktail containing RT (1–10 nM), dTTP (0.2–18 µM), ATP (0–5 mM), and AZTTP or d4TTP (0–1 µM). These experiments were performed in duplicate and repeated two to six times. […]
Supplementary file pone.0008867.s004.tif: Figure S4 Data on RT mutants from the ERT-mt6 RT. […] RNA-dependent DNA polymerase activity of the purified RTs (20 nM) was measured using a [α-^32P]dTTP and poly (rA)⋅p(dT)12-18 system. […] RNA-dependent DNA polymerase activity of the purified mutant RTs was measured using various concentrations of [α-^32P]dTTP and poly (rA)⋅p(dT)12-18 in the presence of ATP. […]

[4] = 0-4 mM ATP, Lineweaver-Burk double-reciprocal plots
[5] = ATP binding to RT-template-primer complex (RT complex 1)
[6] = ATP binding to RT-template-primer-dTTP complex (RT complex 2)
[7] = dTTP incorporation, absence of ATP

Nc1ncnc2c1ncn2[C@@H]1O[C@H](COP(=O)(O)OP(=O)(O)NP(=O)(O)O)[C@@H](O)[C@H]1O [AMP-PNP, Adenosine 5′-(β, γ-imido) triphosphate]
fold increase in IC50 of AZTTP compared to AZTTP without the compound [1]: approximately 150 fold

Nc1ncnc2c1ncn2[C@@H]1O[C@H](COP(=O)(O)OP(=O)(O)OP(=O)(O)O)[C@@H](O)[C@H]1O [ATP]
mode of inhibition of dTTP incorporation [2, 4]: mixed noncompetitive inhibition | Ki [2, 5]: 2900 ± 1300 µM | Ki′^ATP [2, 6]: 1200 ± 500 µM | mode of inhibition of dTTP incorporation [1, 4]: mixed noncompetitive inhibition | Ki [1, 5]: 2800 ± 1300 µM | Ki′^ATP [1, 6]: 1100 ± 400 µM | fold increase in IC50 of AZTTP compared to AZTTP without the compound [1]: approximately 350 fold

Cc1cn([C@H]2C[C@H](N=[N+]=[N-])[C@@H](COP(=O)(O)OP(=O)(O)OP(=O)(O)O)O2)c(=O)[nH]c1=O [AZTTP, 3′-Azido 3′-deoxythymidine 5′-triphosphate]
fold increase in Ki^NRTI value compared to without ATP [2]: about 6.8 fold | fold increase in Ki^NRTI value compared to without ATP [1]: about 30 fold | fold reduction in the IC50 of AZTTP [3]: 4- to 5 fold

Cc1cn([C@H]2C=C[C@@H](COP(=O)(O)OP(=O)(O)OP(=O)(O)O)O2)c(=O)[nH]c1=O [d4TTP, 3′-deoxy-2′, and 3′-didehydrothymidine 5′-triphosphate]
fold increase in Ki^NRTI value compared to without ATP [2]: ~0.6 fold | fold increase in Ki^NRTI value compared to without ATP [1]: ~8.5 fold

Cc1cn([C@H]2C[C@H](O)[C@@H](COP(=O)(O)OP(=O)(O)OP(=O)(O)O)O2)c(=O)[nH]c1=O [dTTP]
kcat [2, 7]: 1.04 ± 0.01 s⁻¹ | Km ([2]; substrate dTTP, absence of ATP): 4 ± 0.1 µM | kcat [1, 7]: 0.49 ± 0.01 s⁻¹ | Km ([1]; substrate dTTP, absence of ATP): 13.8 ± 0.5 µM

NaPO4
fold increase in IC50 of AZTTP compared to AZTTP without the compound ([2]; in the presence of 5 mM of the indicated compound): little effect | fold increase in IC50 of AZTTP compared to AZTTP without the compound [1]: little effect
